Columns and labels:
H3 histamine receptor = H3 histamine receptor (Homo sapiens, UniProt Q9Y5N1); assay: Intrinsic activity at H3R, Aequoscreen assay; format: cell-based
Experimental: Intrinsic activity studies were performed using two methods, Aequoscreen and LANCE Ultra cAMP assays, according to the manufacturer of the ready-to-use cells with stable expressions of the H3 histamine receptor (Perkin Elmer).
The Aequoscreen technology uses recombinant cell lines with stable co-expression of apoaequorin and a GPCR as a system to detect activation of the receptor, following the addition of an agonist, via the measurement of light emission. For the measurement, cells (frozen, ready to use) were thawed and resuspended in 10 mL of assay buffer containing 5 μM of coelenterazine h. The cell suspension was then placed in a 10 mL Falcon tube, fixed on a rotating wheel, and incubated overnight at RT° in the dark. Cells were diluted with assay buffer at 5000 cells/20 µL. Agonistic ligands 2 × (50 μL/well), diluted in assay buffer, were prepared in 1/2 area white polystyrene plates, and 50 μL of cell suspension was dispersed on the ligands using the injector. The light emission was recorded for 20 s. Cells were incubated with antagonist for 15 min at RT°. Then, 50 µL of agonist (final concentration equal to 3 × EC80) was injected into the mixture of cells and antagonist and light emission was recorded for 20 s.

[1] = tested on: rats fed a palatable diet; assay: Plasma triglyceride and corticosterone levels in the model of excessive eating; format: in vivo, female Wistar rats; settings: KSK 10 mg/kg, phentermine 7 mg/kg
Experimental: Blood was collected from the left carotid artery and then centrifuged at 600× g (15 min, 4 °C) to obtain plasma.
To determine plasma triglyceride levels, standard enzymatic and spectrophotometric tests (Cat. No 1-053-A150, Biomaxima S.A., Lublin, Poland) were used. The ELISA Kit (Item No. 501320, Cayman Chemical, Ann Arbor, MI, USA) was used to determine corticosterone levels in plasma.

adipose tissue = assay: Histological examination of adipose tissue (Masson's trichrome); format: in vivo, female Wistar rats; settings: palatable diet; for inflammatory infiltrates in adipose tissue (histological description) / number of adipocytes per 0.1 mm^2 of cross-sectional area / inflammatory index of the adipose tissue: KSK 10 mg/kg, phentermine 7 mg/kg; for number of adipocytes per 0.1 mm^2 of cross-sectional area: means ± SD, n = 6; for inflammatory index of the adipose tissue: standard diet + vehicle 0.5 ± 0.34
Experimental: Adipose tissue samples were prepared for histology using Masson’s trichrome stain (Merck) by fixation in 4% formaldehyde, dehydration in graded alcohol, and embedded in paraffin. The tissue samples were then sectioned using a microtome of 5 μm thickness. Six random fields from each section were analyzed in a blinded manner with an Olympus BX41 light microscope (Olympus, Tokyo, Japan) at magnifications of ×20, ×40 and ×100, and digital images were captured with an Olympus UC90 color camera. The quantitation of the number of adipocytes was performed in eight fields/slide with ×100 objective using an image analysis system: CellSensDimension (Olympus, Tokyo, Japan). The numerical density of the adipocytes was obtained by counting the total number of adipocytes per high-power field ([…]), and then this number was converted to 0.1 mm^2. According to stereometric rules, adipocytes tangent to the left and top edges of the image field were not counted. A semi-quantitative scale was used to assess the inflammatory response in adipose tissue. The following were evaluated on a subjective scale: inflammatory cell infiltration between adipocytes (0—normal, 1—few cells, 2—local clusters, and 3—extensive infiltrates), perivascular infiltration of immune cells (0—normal, 1—few cells, and 2—ring of inflammatory cells), widening of the septum (0—normal and 1—widening), and capillary congestion (0—normal and 1—congestion). A sum calculated from independently assessed values was calculated for each animal as an index of inflammation.

[2] = Pharmacokinetic study, single i.p. dose, plasma LC-MS/MS; format: in vivo, rat; settings: for Tmax / Cmax / CL/F / MRT / half-life / k el / Vd/F: ip; for Tmax / Cmax / CL/F / MRT / half-life / k el / Vz/F (volume of distribution) / Vd/F: rat plasma, single i.p. dose of 10 mg/kg; for Cmax: n = 3, non-compartmental; for CL/F: read-out: CLS/F (clearance) (converted); for MRT: read-out: MRT (mean residence time); for half-life: read-out: t0.5λz (half-life) (converted); for k el: read-out: λz (terminal elimination rate constant) (converted); for Vz/F (volume of distribution) / Vd/F: 10 mg/kg; for Vd/F: rat, plasma, read-out: Vz/F (volume of distribution); for time at which maximal plasma concentration was attained (first sampling point): single i.p. dose of 10 mg/kg b.w.
Experimental: Six rats divided into two experimental groups were used in pharmacokinetic experiments. Three days before the experiment, the rats’ jugular vein was cannulated allowing for multiple blood sampling from a single animal. The investigated compounds were administered i.p. at a single dose of 10 mg/kg. Blood samples (approximately 300 µL) were collected in Eppendorf tubes containing heparin at 5, 15, 30, 60, 120, 240, and 360 min after dosing. Plasma was harvested by centrifuging at 5000× g for 10 min and stored at −30 °C until bioanalysis.
Plasma concentrations of KSK-60 or KSK-74 were measured using the liquid chromatography tandem mass spectrometry (LC-MS/MS) method. The samples (50 μL) were deproteinized in a 1:3 (v/v) ratio with acetonitrile containing an internal standard (IS—pentoxifylline), briefly vortexed, and then centrifuged for 10 min at a speed of 8000× g (Eppendorf miniSpin centrifuge). The supernatant was transferred to autosampler vials and a sample volume of 10 μL was injected into the LC-MS/MS system.
Chromatographic separation was performed on the analytical column XBridge™ C18 (3 × 50 mm, 5 µm, Waters, Dublin, Ireland) using the Agilent 1100 HPLC system (Agilent Technologies, Waldbronn, Germany). The mobile phase containing 0.1% formic acid in acetonitrile and 0.1% formic acid in water was run at 0.3 mL/min in gradient mode. Mass spectrometric detection was performed on an Applied Biosystems MDS Sciex (Concord, ON, Canada) API 2000 triple quadrupole mass spectrometer. Electrospray ionization (ESI) in the positive ion mode was used for ion production. The tandem mass spectrometer was operated at unit resolution in the selected reaction monitoring mode (SRM), monitoring the transitions of the protonated molecular ions m/z 396 to 107 (CE 80 V) for KSK-60, m/z 424 to 107 (CE 80 V) for KSK-74, and m/z 279 to 181 (CE 55 V) for IS. Data acquisition and processing were performed using the Applied Biosystems Analyst version 1.6 software. The calibration curves were constructed by plotting the ratio of the peak area of the studied compound to IS versus drug concentration, and generated by weighted (1/x · x) linear regression analysis. The validated quantitation ranges were from 1 to 2000 ng/mL. The calculated accuracy and precision were within the ranges proposed by the guidelines for the validation of bioanalytical methods (FDA, EMA). No significant matrix effect was observed and there were no stability-related problems during the routine analysis of the samples.
Pharmacokinetic parameters were calculated by employing a non-compartmental approach using Monolix version 2019R1 (Antony, France: Lixoft SAS, 2019) software. The area under the mean plasma concentration versus time curve extrapolated to infinity (AUC0-inf) was estimated using the log/linear trapezoidal rule. AUMC0-inf was estimated by calculating the total area under the first-moment curve by combining the trapezoid calculation of AUMC0-t and the extrapolated area. The mean residence time (MRT) was calculated from AUMC0-inf/AUC0-inf. The terminal rate constant (λz) was calculated by log-linear regression of the drug concentration data in the terminal phase, and the terminal half-life (t1/2) was calculated as 0.693/λz. Clearance (CL/F) was estimated from the administered dose divided by AUC0-inf. The apparent volume of distribution during the terminal phase (Vz/F) was calculated from (CL/F)/λz.

H3 histamine receptor, sequence (Q9Y5N1 whole entry): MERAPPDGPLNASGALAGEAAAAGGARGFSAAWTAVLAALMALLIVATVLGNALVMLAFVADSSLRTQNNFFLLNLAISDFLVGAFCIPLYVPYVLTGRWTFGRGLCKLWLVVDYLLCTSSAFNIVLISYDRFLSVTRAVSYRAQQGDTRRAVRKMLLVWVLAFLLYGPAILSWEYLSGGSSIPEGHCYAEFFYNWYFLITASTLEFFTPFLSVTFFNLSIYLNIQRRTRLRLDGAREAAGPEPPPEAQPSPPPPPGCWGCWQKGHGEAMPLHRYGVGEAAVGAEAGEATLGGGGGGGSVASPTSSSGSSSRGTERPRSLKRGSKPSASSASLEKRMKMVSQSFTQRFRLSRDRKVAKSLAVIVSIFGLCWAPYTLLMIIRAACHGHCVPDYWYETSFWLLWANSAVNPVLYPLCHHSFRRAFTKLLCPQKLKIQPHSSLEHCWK

## CCC(=O)c1ccc(OCCCCCCN2CCN(c3ccncc3)CC2)cc1 [KSK-60]
H3 histamine receptor
  IC50: 1.49 ± 0.2 nM
[1]
  plasma triglyceride levels vs palatable diet + vehicle: No differences in plasma triglyceride levels
Adipose tissue
  inflammatory infiltrates in adipose tissue (histological description): Many inflammatory cells infiltrated the area of adipocytes and the perivascular area
  number of adipocytes per 0.1 mm^2 of cross-sectional area: 18.02 ± 1.38 per 0.1 mm^2
  inflammatory index of the adipose tissue: 4.5 ± 0.80
Adipose tissue; n = 6 per group
  number of rats, Capillary Congestion grade 0-Normal: 2
  number of rats, Capillary Congestion grade 1-Congestion: 4
  number of rats, Inflammatory Cell Infiltration grade 1-Few Cells: 2
  number of rats, Inflammatory Cell Infiltration grade 2-Local Clusters: 4
  number of rats, Perivascular Infiltration grade 1-Few Cells: 2
  number of rats, Perivascular Infiltration grade 2-Ring of Cells: 4
  number of rats, Widening of the Septum grade 0-Normal: 1
  number of rats, Widening of the Septum grade 1-Widening: 5
[2]
  Tmax: 4.98 min
  Cmax: 109 ng/mL
  CL/F: 1170 mL/min/kg
  MRT: 3.28 h
  half-life: 2.7 h
  k el: 7.22e-05 s⁻¹
  Vz/F (volume of distribution): 272.63 L/kg
  Vd/F: 272 L/kg
  time at which maximal plasma concentration was attained (first sampling point): 5 min

## CCC(=O)c1ccc(OCCCCCCCCN2CCN(c3ccncc3)CC2)cc1 [KSK-74]
H3 histamine receptor
  IC50: 31.9 ± 0.5 nM
[1]
  plasma triglyceride levels vs palatable diet + vehicle: lower plasma triglyceride levels
Adipose tissue
  inflammatory infiltrates in adipose tissue (histological description): slightly less inflammatory infiltrates
  number of adipocytes per 0.1 mm^2 of cross-sectional area: 34.78 ± 4.78 per 0.1 mm^2
  inflammatory index of the adipose tissue: comparable to the standard control
Adipose tissue; n = 6 per group
  number of rats, Capillary Congestion grade 0-Normal: 5
  number of rats, Capillary Congestion grade 1-Congestion: 1
  number of rats, Inflammatory Cell Infiltration grade 0-Normal: 1
  number of rats, Inflammatory Cell Infiltration grade 1-Few Cells: 3
  number of rats, Inflammatory Cell Infiltration grade 2-Local Clusters: 2
  number of rats, Perivascular Infiltration grade 0-Normal: 2
  number of rats, Perivascular Infiltration grade 1-Few Cells: 1
  number of rats, Perivascular Infiltration grade 2-Ring of Cells: 3
  number of rats, Widening of the Septum grade 0-Normal: 3
  number of rats, Widening of the Septum grade 1-Widening: 3
[2]
  Tmax: 4.98 min
  Cmax: 105 ng/mL
  CL/F: 2180 mL/min/kg
  MRT: 2.45 h
  half-life: 2.71 h
  k el: 6.94e-05 s⁻¹
  Vz/F (volume of distribution): 513.14 L/kg
  Vd/F: 513 L/kg
  time at which maximal plasma concentration was attained (first sampling point): 5 min

From paper PMC9266460, “KSK-74: Dual Histamine H3 and Sigma-2 Receptor Ligand with Anti-Obesity Potential” (International Journal of Molecular Sciences, 2022)
